# “And” between values parts separate entries of the source, which are not always exact repeats. Identical values can stand only once.
# Experiments:
# [1] = test system: MDR S. aureus (LUH 14616), MRSA; assay: Bactericidal activity of peptides (in vitro killing assay); type: cell-based, Staphylococcus aureus; details: MDR S. aureus LUH 14616; 2-hour treatment; 50% v/v human plasma; lowest concentration killing ≥99.9%; median (range)
# Protocol: (§1) Enterococcus faecium (LUH 15122), Staphylococcus aureus (LUH 14616), Klebsiella pneumoniae (LUH 15104), Acinetobacter baumannii (RUH 875), Pseudomonas aeruginosa (LUH 15103), Enterobacter cloacae (LUH 15114) and Escherichia coli (LUH 15117) were used. Prior to experimentation the bacteria were taken from a glycerol stock stored at −80° C. and cultured overnight on sheep blood agar plates at 37° C. On the day of experimentation the bacteria were cultured in tryptic soy broth (TSB; Oxoid) for 2.5 hours at 37° C. and 200 rpm to a mid-logarithmic phase. The bacterial suspension was washed in phosphate buffered saline (PBS; pH 7.4), centrifuged for 10 minutes at 3000 rpm, and resuspended in PBS to the desired concentration, as determined by measuring the absorbance at 600 nm.
# (§2) As a control the bacteria were also incubated in PBS with either 50% plasma or 50% urine without peptide. The plate was incubated for 2 hours at 37° C. and 200 rpm. After incubation the number of viable bacteria was determined microbiologically by plating the samples and a 10-times dilution series in PBS on diagnostic sensitivity test agar plates (DST; Sigma). The DST plates were incubated overnight at 37° C. Results were expressed as lethal concentration 99.9, or LC99.9, which represents the lowest concentration of peptide that killed 99.9% of the bacteria within 2 hours of incubation.
# [2] = test system: MDR P. aeruginosa (LUH 15103); assay: as above; type: cell-based, Pseudomonas aeruginosa; details: 2-hour treatment, 50% v/v human plasma, median (range)
# Protocol: as §1, §2
# [3] = test system: multidrug resistant strain Acinetobacter baumannii RUH875; assay: as above; type: cell-based; details: 50% (v/v) human plasma, 2 hours
# Protocol: as §1, §2
# [4] = test system: human neutrophils; assay: Neutrophil migration assay; type: cell-based; details: 3.2 μM peptide
# Protocol: Heparinized blood was collected from healthy human volunteers. Next, 10 ml of blood were mixed to 15 ml of PBS in a tube. Underneath the diluted blood, 10 ml of Ficoll (Pharmacy, LUMC) were added. The tube was spun at 1800 rpm for 20 minutes without brake. The supernatant was removed and 40 ml of erythrocyte lysis buffer (0.1 mM EDTA, 0.18 M NH4Cl, 10 mM KHCO3) were added to the pellet. This mixture was incubated at room temperature until erythrocyte lysis was evident. The tube was centrifuged at 1200 rpm for 10 minutes, the supernatant was discarded. The pellet was washed again with PBS the same way. The pellet was resuspended in RPMI 1640 medium and the cells were counted with a counting chamber. The cells were diluted to 2×10^6 cells/ml of RPMI 1640. The inserts with a 3.0 μm pore size in a 12-well plate (HTS transwell; Costar) were blocked with 400 μl of PBS with 0.1% w/v BSA for 10 minutes at room temperature after which the BSA solution was discarded. The 2×10^6 cells/ml suspension was diluted with RPMI to add 400 μl of a 2×10^5 cells/ml suspension to the inserts. […] In the lower compartment 1 ml of the chemoattractant was added. […] Results were expressed as the percentage of migrated neutrophils compared to the positive FMLP control, and corrected for the negative control.
Substance,LC99.9 (μM) MRSA in 50% plasma [1],LC99.9 (μM) MDR P. aeruginosa in 50% plasma [2],LC99.9 (μM) A. baumannii ([3]; Table 5),LC99.9 (μM) A. baumannii ([3]; Table 6),migrated neutrophils [4]
AREKSFLQKMKVILQLSSQDQIQAF [SP20],>102.4 µM,>102.4 µM,,,
DQVERGNFAKDGSKARVKKSLTKWVKFLKKIIAKLGRPLIGF [SP22],102.4 µM,51.2 µM,,,
FFRKVKKGVHRYFKKNKFYIAATI [SP27-68],,,12.8 µM,,
FKKFFRKVKKGVHRYFKKNKFYIA [SP27-65],,,1.6 µM,,
FRKVKKGVHRYFKKNKFYIAATIP [SP27-69],,,25.6 µM,,
KFFRKVKKGVHRYFKKNKFYIAAT [SP27-67],,,3.2 µM,,
KKFFRKVKKGVHRYFKKNKFYIAA [SP27-66],,,1.6 µM,,
KRFKKFFRKVKKGVHRYFKKNKFY [SP27-63],,,0.4 µM,0.4 µM,
KVKKGVHRYFKKNKFYIAATIPYY [SP27-71],,,12.8 µM,,
KRFAGFFQFVIGVSFHF [SP21],>102.4 µM,>102.4 µM,,,
KRFAGFFQFVVGVSFRF [SP33],>102.4 µM,>102.4 µM,,,
KRFKDFFHRIRDGVRDFFRNNHFVCGVNFRF [SP17],>102.4 µM,>102.4 µM,,,
KRFKKFFKKAKKSVKKRLKKFFNKTRVIGVSIPF [SP14],12.8 µM,0.4 µM,,,
KRFKKFFKKIKNGIKTFIKKTQMAIGSHFRW [SP30],51.2 µM,2.4 (1.6-3.2) μM,,,
KRFKKFFKKIKNSVKKRVKKFFKKPRVIGVSIPF [SP23],4.8 (3.2-6.4) μM,0.2 µM,,,
KRFKKFFKKIKTGIKKVIKKTKQAIASHFRW [SP18],> 102.4 µM and 102.4 µM,0.8 µM,,,
KRFKKFFKKLKNSVKKRVKKFFRKPRVIGVTFPF [SP3],3.2 µM,0.8 µM,,,
KRFKKFFKKLKNSVRKCAKKFFKKLRVIRVSIPF [SP24],6.4 µM,1.6 µM,,,
KRFKKFFKKVKKSVKKRLKKIFKKPIVIGVSIPF [SP25],12.8 µM,0.4 µM,,,
KRFKKFFKKVKKSVKKRLKKIFKKPMVIGVSIPF [SP7],38.4 (25.6-51.2) μM,0.8 µM,,,

Substance,LC99.9 (μM) MRSA in 50% plasma [1],LC99.9 (μM) MDR P. aeruginosa in 50% plasma [2],LC99.9 (μM) A. baumannii ([3]; Table 5),LC99.9 (μM) A. baumannii ([3]; Table 6),migrated neutrophils [4]
KRFKKFFKKVKKSVKKRLKKIFKKPMVIGVTFPF [SP9],51.2 (25.6-51.2) μM,1.6 µM,,,
KRFKKFFKKVKKSVKKRLKKIFKKPMVIGVTIPF [SP6],57.6 (12.8-102.4) μM,0.4 µM,,,
KRFKKFFMKLKKSVKKRVMKFFKKPMVIGVTFPF [SP12],25.6 (12.8->102.4) μM,3.2 µM,,,
KRFKKFFRKIKKGFRKIFKKTKIFIGGTIPI [SP15],12.8 µM,0.8 µM,,,
KRFKKFFRKLKKSVKKRVKKFFKKPRVIGVTIPF [SP11],3.2 µM,0.4 µM,,,
KRFKKFLKKLKKSVKKHVKEFFKKPRVIGV [SP35],51.2 µM,1.6 µM,,,
KRFKNFFKKIRDGIHEFIHNNRFVIGVNFRF [SP29],>102.4 µM,51.2 µM,,,
KRFKNFFKRVRDGIRDFFRKNHIVIGVNFRF [SP31],102.4 µM,25.6 µM,,,
KRFLRLVVFKKLKKGLRKLFKKKKIVTGHVTS [SP28],51.2 µM,6.4 µM,,,
KRFLRVFKKLKRGIRKLFKKKKIVTGPLTS [SP19],>102.4 µM,12.8 µM,,,
KRFLRVFRKLKKGLKKLFKRKKVVTGYVTA [SP32],25.6 µM,12.8 µM,,,
KRFRKFFKRLLKSVRRAVKKFRKKPRLIGLSTLL [SP8],25.6 µM,1.6 µM,,,
KRFTFYKKVKKNVENLLNKFFKKLRVIGDSIPF [SP26],>102.4 µM,12.8 µM,,,
KRFVGSFQLVVGVSFRF [SP34],>102.4 µM,>102.4 µM,,,
KRVKRFKKFFKKVKKSVKKRLKKIFKKPMVIGVTIPF [SP2],25.6 µM,0.4 µM,,,
LL-37,,,,,5.6%
RFKKFFRKVKKGVHRYFKKNKFYI [SP27-64],,,0.8 µM,,
RKVKKGVHRYFKKNKFYIAATIPY [SP27-70],,,12.8 µM,,
RKFKKSFKKIRKWVKKATKIAGEVAVEILITKVILGSVGL [SP1],>102.4 µM,3.2 µM,,,
VKKGVHRYFKKNKFYIAATIPYYG [SP27-72],,,25.6 µM,,
